Test results as given in US20100113445A1, “Chemical Compounds” (SMITHKLINE BEECHAM CORPORATION, priority 2007, published 2010).
Where a name gives a salt, the structure may show the parent alone.

Molecular target: T1, Wee1 (Homo sapiens, UniProt P30291)
T1 construct: endogenous in cells; host or cells: HeLa cells
Test: Cell assay for Wee1 inhibitory activity (cell-based ELISA of cdc2 phosphorylation)
Conditions: aphidicolin-synchronized Hela cells in G2-M; phospho-cdc2(Tyr15) sandwich ELISA; read-out: pIC50, cell assay for Wee1 inhibitory activity (converted)
From the text: Cell Assay for Wee1 Inhibitory Activity
Wee1 inhibitory activity can be measured using a cell-based ELISA assay.
Hela cells are synchronized using aphidicolin, which blocks the entry of cells into S-phase. Cells in G2-M transition phase are then obtained by releasing the cells from aphidicolin treatment for approximately 7-9 hrs. The phosphorylation level of the Wee1 target cdc2 may then be measured by sandwich ELISA using an anti-cdc2 antibody and an anti-phospho-cdc2(Tyr15) antibody. This cell assay was used to calculate a pIC50 for the compounds described in Examples 3, 4, 6-8, 10-12, 15, 17, 18, 21, 23, 25-27, 33, 35, 39, 43, 44, 51, 63, and 99.

T1 sequence (P30291 whole entry): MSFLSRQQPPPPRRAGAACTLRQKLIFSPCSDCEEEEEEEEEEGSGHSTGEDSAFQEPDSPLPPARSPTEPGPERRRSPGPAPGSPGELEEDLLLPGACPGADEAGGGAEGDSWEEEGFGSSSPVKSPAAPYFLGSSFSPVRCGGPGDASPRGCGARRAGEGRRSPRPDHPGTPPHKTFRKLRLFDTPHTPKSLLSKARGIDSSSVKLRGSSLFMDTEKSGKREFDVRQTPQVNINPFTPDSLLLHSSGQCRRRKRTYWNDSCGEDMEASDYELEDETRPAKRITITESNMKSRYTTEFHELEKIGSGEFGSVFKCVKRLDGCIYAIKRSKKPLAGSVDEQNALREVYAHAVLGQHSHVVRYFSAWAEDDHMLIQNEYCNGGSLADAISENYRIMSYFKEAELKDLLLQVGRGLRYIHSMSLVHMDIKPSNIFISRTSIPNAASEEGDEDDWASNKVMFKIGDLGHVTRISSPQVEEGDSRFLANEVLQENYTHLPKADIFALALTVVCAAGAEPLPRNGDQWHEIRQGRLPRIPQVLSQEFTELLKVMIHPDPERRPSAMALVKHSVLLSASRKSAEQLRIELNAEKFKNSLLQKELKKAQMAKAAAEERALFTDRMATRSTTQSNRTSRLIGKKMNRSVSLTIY

| IC50 [µM] | SMILES |
| --- | --- |
| ≤ 10 | CCN(CC)CCOc1ccc(Nc2ncc(-c3cn[nH]c3)c(Nc3ccccc3OC)n2)cc1 [Example 3, N^2-(4-{[2-(diethylamino)ethyl]oxy}phenyl)-N^4-[2-(methyloxy)phenyl]-5-(1H-pyrazol-4-yl)-2,4-pyrimidinediamine] |
| ≤ 10 | CCN(CC)CCOc1ccc(Nc2ncc(-c3ccc4[nH]ncc4c3)c(Nc3ccccc3OC)n2)cc1 [Example 4, N^2-(4-[{2-(diethylamino)ethyl]oxy}phenyl)-5-(1H-indazol-5-yl)-N^4-[2-(methyloxy)phenyl]-2,4-pyrimidinediamine] |
| ≤ 10 | CCN(CC)CCOc1ccc(Nc2ncc(-c3cncc(OC)c3)c(Nc3ccccc3OC)n2)cc1 [Example 6, N^2-(4-{[2-(diethylamino)ethyl]oxy}phenyl)-N^4-[2-(methyloxy)phenyl]-5-[5-(methyloxy)-3-pyridinyl]-2,4-pyrimidinediamine] |
| ≤ 10 | CCN(CC)CCOc1ccc(Nc2ncc(-c3ccc(O)cc3)c(Nc3ccccc3OC)n2)cc1 [Example 7] |
| ≤ 10 | CCN(CC)CCOc1ccc(Nc2ncc(-c3cncnc3)c(Nc3ccccc3OC)n2)cc1 [Example 8, N^2-(4-{[2-(diethylamino)ethyl]oxy}phenyl)-N^4-[2-(methyloxy)phenyl]-5,5′-bipyrimidine-2,4-diamine] |
| ≤ 10 | CCN(CC)CCOc1ccc(Nc2ncc(-c3cnc4ccccc4c3)c(Nc3ccccc3OC)n2)cc1 [Example 10, N^2-(4-{[2-(diethylamino)ethyl]oxy}phenyl)-N^4-[2-(methyloxy)phenyl]-5-(3-quinolinyl)-2,4-pyrimidinediamine] |
| ≤ 10 | CCN(CC)CCOc1ccc(Nc2ncc(-c3ccccc3Cl)c(Nc3ccccc3OC)n2)cc1 [Example 11, 5-(2-chlorophenyl)-N^2-(4-{[2-(diethylamino)ethyl]oxy}phenyl)-N^4-[2-(methyloxy)phenyl]-2,4-pyrimidinediamine] |
| ≤ 10 | CCN(CC)CCOc1ccc(Nc2ncc(-c3cnn(Cc4ccccc4)c3)c(Nc3ccccc3OC)n2)cc1 [Example 12, N^2-(4-{[2-(diethylamino)ethyl]oxy}phenyl)-N^4-[2-(methyloxy)phenyl]-5-[1-(phenylmethyl)-1H-pyrazol-4-yl]-2,4-pyrimidinediamine] |
| ≤ 10 | CCN(CC)CCOc1ccc(Nc2ncc(-c3cccc(CO)c3)c(Nc3ccccc3OC)n2)cc1 [Example 21, [3-(2-[(4-{[2-(diethylamino)ethyl]oxy}phenyl)amino]-4-{[2-(methyloxy)phenyl]amino}-5-pyrimidinyl)phenyl]methanol] |
| ≤ 10 | CCC(C)NC(=O)c1ccccc1Nc1nc(Nc2ccc(Cn3cncn3)cc2)ncc1-c1cn[nH]c1 (stereo not drawn) [Example 25, N-(1-methylpropyl)-2-[(5-(1H-pyrazol-4-yl)-2-{[4-(1H-1,2,4-triazol-1-ylmethyl)phenyl]amino}-4-pyrimidinyl)amino]benzamide] |
| ≤ 10 | Fc1cccc(CCNc2nc(Nc3ccc(Cn4cncn4)cc3)ncc2-c2cncnc2)c1 [Example 26, N^4-[2-(3-fluorophenyl)ethyl]-N^2-[4-(1H-1,2,4-triazol-1-ylmethyl)phenyl]-5,5′-bipyrimidine-2,4-diamine] |
| ≤ 10 | COc1ccccc1Nc1nc(Nc2ccc(Cn3cncn3)cc2)ncc1-c1cncnc1 [Example 33, N^4-[2-(methyloxy)phenyl]-N^2-[4-(1H-1,2,4-triazol-1-ylmethyl)phenyl]-5,5′-bipyrimidine-2,4-diamine] |
| ≤ 10 | CCN(CC)CCOc1ccc(Nc2ncc(-c3cccc(N)c3)c(Nc3ccccc3OC)n2)cc1 [Example 35, 5-(3-aminophenyl)-N^2-(4-{[2-(diethylamino)ethyl]oxy}phenyl)-N^4-[2-(methyloxy)phenyl]-2,4-pyrimidinediamine] |
| ≤ 10 | CCN(CC)CCOC(=O)Nc1ccc(Nc2ncc(-c3cncnc3)c(Nc3ccccc3OC)n2)cc1 [Example 43, 2-(diethylamino)ethyl {4-[(4-{[2-(methyloxy)phenyl]amino}-5,5′-bipyrimidin-2-yl)amino]phenyl}carbamate] |
| ≤ 10 | CCN(CC)CCOc1ccc(Nc2ncc(-c3cncnc3)c(Nc3cccc(C#N)c3)n2)cc1 [Example 44, 3-({2-[(4-{[2-(diethylamino)ethyl]oxy}phenyl)amino]-5,5′-bipyrimidin-4-yl}amino)benzonitrile] |
| ≤ 10 | Cc1ncc(-c2cccc(Nc3nc(Nc4ccc(Cn5cncn5)cc4)ncc3-c3cncnc3)c2)s1 [Example 51, N^4-[3-(2-methyl-1,3-thiazol-5-yl)phenyl]-N^2-[4-(1H-1,2,4-triazol-1-ylmethyl)phenyl]-5,5′-bipyrimidine-2,4-diamine] |
| ≤ 10 | CCN(CC)CCOc1ccc(Nc2ncc(-c3cccc(C(N)=O)c3)c(Nc3ccccc3OC)n2)cc1 [Example 63, 3-(2-[(4-{[2-(diethylamino)ethyl]oxy}phenyl)amino]-4-{[2-(methyloxy)phenyl]amino}-5-pyrimidinyl)benzamide] |
| ≤ 10 | COc1ccccc1Nc1nc(Nc2cccc(OCCN(C)C)c2)ncc1-c1cn[nH]c1 [Example 99, N^2-(3-{[2-(dimethylamino)ethyl]oxy}phenyl)-N^4-[2-(methyloxy)phenyl]-5-(1H-pyrazol-4-yl)-2,4-pyrimidinediamine hydrochloride] |
